From the supplement of paper PMC10307832

Legend:
Experiment in all cases: relative viability (nuclei count vs DMSO), 5 days (fraction); higher = more cells survive
[1] = compound: CC(C)C[C@H](NC(=O)[C@H](Cc1ccccc1)NC(=O)c1cnccn1)B(O)O [Bortezomib] + Cc1nc(NC(=O)N2CCC[C@H]2C(N)=O)sc1-c1ccnc(C(C)(C)C(F)(F)F)c1 [Alpelisib] (partner 2 µM)
Outline: (§1)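 Dosing by pin tool came one day after lung cancer cell lines were seeded in 1536-well plates, using either one drug or a fixed anchor-drug dose plus five library-drug doses (not always all listed) in √10 steps. After 5 days, nuclei were counted on 4× images. Relative viability is treated-well nuclei count divided by vehicle-well nuclei count, and values are medians of duplicate plates.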

[2] = compound: CC1=CC(=NN1)NC2=CC(=NC(=N2)/C=C/C3=CC=CC=C3)N4CCN(CC4)C + CC1(C)CCC(c2ccc(Cl)cc2)=C(CN2CCN(c3ccc(C(=O)NS(=O)(=O)c4ccc(N[C@H](CCN5CCOCC5)CSc5ccccc5)c(S(=O)(=O)C(F)(F)F)c4)cc3)CC2)C1 [Navitoclax] (partner 0.5 µM)
Outline: as §1

[3] = compound: CC1=CC(=NN1)NC2=CC(=NC(=N2)/C=C/C3=CC=CC=C3)N4CCN(CC4)C + C[C@]1(O)C[C@@H](c2nc(-c3ccc4ccc(-c5ccccc5)nc4c3)c3c(N)nccn32)C1 [Linsitinib] (partner 1 µM)
Outline: as §1

[4] = compound: COC1=CC(c2cc3ccccc3[nH]2)=N/C1=C\c1[nH]c(C)cc1C [Obatoclax] + O=C(CCCCCCC(=O)Nc1ccccc1)NO [Vorinostat] (partner 1 µM)
Outline: as §1

| Cell Line | relative viability ([1]; first compound 0.0002 µM) | relative viability ([1]; first compound 0.000632 µM) | relative viability ([1]; first compound 0.002 µM) | relative viability ([1]; first compound 0.006325 µM) | relative viability ([1]; first compound 0.02 µM) | relative viability ([2]; first compound 0.08 µM) | relative viability ([2]; first compound 0.253 µM) | relative viability ([2]; first compound 0.8 µM) | relative viability ([2]; first compound 2.53 µM) | relative viability ([2]; first compound 8 µM) | relative viability ([3]; first compound 0.08 µM) | relative viability ([3]; first compound 0.253 µM) | relative viability ([3]; first compound 0.8 µM) | relative viability ([3]; first compound 2.53 µM) | relative viability ([3]; first compound 8 µM) | relative viability ([4]; first compound 0.01 µM) | relative viability ([4]; first compound 0.03162 µM) | relative viability ([4]; first compound 0.1 µM) | relative viability ([4]; first compound 0.3162 µM) | relative viability ([4]; first compound 1 µM) |
| --- | --- | --- | --- | --- | --- | --- | --- | --- | --- | --- | --- | --- | --- | --- | --- | --- | --- | --- | --- | --- |
| NCI-H1666 | 1.04 | 0.98 | 1.04 | 0.232 | 0.217 | 0.951 | 0.898 | 0.906 | 0.64 | 0.222 | 0.83 | 0.949 | 0.747 | 0.77 | 0.288 | 1.03 | 1.08 | 1.11 | 0.998 | 0.754 |
| NCI-H1734 | 0.706 | 0.732 | 0.612 | 0.154 | 0.113 | 0.837 | 0.81 | 0.8 | 0.331 | 0.108 | 0.907 | 0.867 | 0.917 | 0.478 | 0.196 | 0.819 | 0.887 | 0.814 | 0.741 | 0.31 |
| NCI-H1755 | 0.944 | 0.926 | 0.951 | 0.178 | 0.139 | 0.984 | 0.98 | 0.974 | 0.504 | 0.155 | 1.05 | 1.04 | 0.993 | 0.799 | 0.267 | 0.698 | 0.765 | 0.767 | 0.753 | 0.728 |
| NCI-H1793 | 0.668 | 0.589 | 0.776 | 0.475 | 0.127 | 0.516 | 0.446 | 0.466 | 0.156 | 0.131 | 0.904 | 1.32 | 0.828 | 0.432 | 0.108 | 0.725 | 0.71 | 0.714 | 0.711 | 0.722 |
| NCI-H1915 | 1.05 | 1.03 | 0.892 | 0.81 | 0.0434 | 0.762 | 0.8 | 0.779 | 0.539 | 0.213 | 1.1 | 1.1 | 1.03 | 0.815 | 0.569 | 0.543 | 0.426 | 0.501 | 0.481 | 0.538 |
| NCI-H1944 | 0.807 | 0.79 | 0.764 | 0.84 | 0.154 | 1.04 | 1.08 | 1.03 | 0.866 | 0.266 | 1.21 | 1.4 | 1.23 | 0.86 | 0.348 | 0.519 | 0.484 | 0.57 | 0.561 | 0.527 |
| NCI-H1975 | 0.696 | 0.615 | 0.163 | 0.127 | 0.108 | 0.977 | 1.12 | 1.08 | 0.616 | 0.134 | 0.904 | 0.951 | 0.722 | 0.203 | 0.127 | 0.674 | 0.775 | 0.73 | 0.735 | 0.788 |
| NCI-H1993 | 0.697 | 0.617 | 0.708 | 0.462 | 0.484 | 0.94 |  | 0.78 | 0.576 | 0.489 | 0.842 |  | 0.617 | 0.594 | 0.55 | 0.907 | 0.847 | 0.857 | 1.08 | 0.812 |
| NCI-H2009 | 1.13 | 1.19 | 1.14 | 0.543 | 0.0447 | 1.19 | 1.09 | 1.13 | 1.12 | 0.212 | 1.08 | 1.16 | 1.21 | 1.05 | 0.155 | 0.723 | 0.73 | 0.634 | 0.502 | 0.251 |
| NCI-H2023 | 0.525 | 0.612 | 0.74 | 0.383 | 0.0813 | 0.952 | 1.09 | 0.874 | 0.387 | 0.069 | 0.63 | 0.725 | 0.581 | 0.382 | 0.0796 | 0.489 | 0.613 | 0.632 | 0.553 | 0.376 |
| NCI-H2085 | 0.898 | 1.09 |  | 0.279 | 0.233 | 1.24 | 1.19 | 0.994 | 0.489 | 0.315 | 0.796 | 0.95 | 0.931 | 0.502 | 0.289 | 0.748 | 0.776 | 0.669 | 0.787 | 0.342 |
| NCI-H2087 | 0.953 | 1.05 | 0.635 | 0.0664 | 0.0561 | 0.974 | 0.923 | 1.11 | 0.247 | 0.122 | 0.982 | 0.909 | 0.965 | 0.723 | 0.203 | 0.61 | 0.81 | 0.931 | 0.671 | 0.723 |
| NCI-H2126 | 0.765 | 0.758 | 0.741 | 0.737 | 0.206 | 0.839 | 0.871 | 0.806 | 0.772 | 0.478 | 0.647 | 0.72 | 0.716 | 0.621 | 0.421 | 0.748 | 0.688 | 0.993 | 0.807 | 0.792 |
| NCI-H2228 | 0.796 | 0.748 | 0.411 | 0.111 | 0.102 | 1.11 | 0.893 | 0.747 | 0.0829 | 0.0768 | 0.776 | 0.709 | 0.506 | 0.154 | 0.0965 | 0.564 | 0.83 | 0.859 | 0.654 | 0.164 |
| NCI-H2347 | 0.924 | 0.968 | 0.706 | 0.248 | 0.278 | 0.762 | 0.871 | 0.912 | 0.496 | 0.361 | 0.844 | 1.05 | 0.99 | 0.93 | 0.614 | 0.633 | 0.71 | 0.514 | 0.54 | 0.465 |
| NCI-H2405 | 0.812 |  | 0.336 | 0.134 | 0.16 | 0.884 | 0.688 | 1.13 | 0.511 | 0.0864 | 0.951 | 0.674 | 1.06 | 0.499 | 0.164 | 1.05 | 1 |  | 0.984 | 0.981 |
